Data from the NIST ThermoML archive (doi:10.1016/j.jct.2018.01.015).

Details: Gas, rotating-body viscometer for gases

N#N [nitrogen]
Details | viscosity [mPa·s]
253.21 K, 100.8 kPa | 0.01561
253.21 K, 200.9 kPa | 0.01564
253.21 K, 400.7 kPa | 0.01566
253.21 K, 600.8 kPa | 0.01571
253.21 K, 800.8 kPa | 0.01574
253.21 K, 1000.9 kPa | 0.01579
253.21 K, 1200.9 kPa | 0.01584
273.24 K, 100.7 kPa | 0.01659
273.24 K, 200.8 kPa | 0.01661
273.24 K, 400.5 kPa | 0.01664
273.24 K, 600.4 kPa | 0.01667
273.24 K, 800.6 kPa | 0.01671
273.24 K, 1000.6 kPa | 0.01674
273.24 K, 1499.8 kPa | 0.01685
298.24 K, 800.5 kPa | 0.01785
298.25 K, 99.6 kPa | 0.01776
298.25 K, 100.7 kPa | 0.01777
298.25 K, 200.5 kPa | 0.01778
298.25 K, 400.7 kPa | 0.0178
298.25 K, 400.8 kPa | 0.0178
298.25 K, 600.2 kPa | 0.01783
298.25 K, 1000.1 kPa | 0.01789
298.25 K, 1500.2 kPa | 0.01799
323.26 K, 100.6 kPa | 0.0189
323.26 K, 101.5 kPa | 0.0189
323.26 K, 200.7 kPa | 0.0189
323.26 K, 400.4 kPa | 0.01893
323.26 K, 600.8 kPa | 0.01896
323.26 K, 800.2 kPa | 0.01896
323.26 K, 1000.6 kPa | 0.01901
323.26 K, 1000.9 kPa | 0.01901
323.27 K, 398.8 kPa | 0.01893
323.27 K, 1501.9 kPa | 0.01907
323.27 K, 1802.1 kPa | 0.01913
373.29 K, 100.8 kPa | 0.02102
373.29 K, 201.1 kPa | 0.02104
373.29 K, 401 kPa | 0.02106
373.29 K, 601 kPa | 0.02107
373.29 K, 1000.3 kPa | 0.02111
373.29 K, 1500.6 kPa | 0.02118
373.29 K, 1807.2 kPa | 0.02122
423.33 K, 100.9 kPa | 0.02302
423.33 K, 200.9 kPa | 0.02303
423.33 K, 400.7 kPa | 0.02306
423.33 K, 600.6 kPa | 0.02308
423.33 K, 1000.5 kPa | 0.02311
423.33 K, 1500.2 kPa | 0.02316
423.33 K, 1799.4 kPa | 0.02319
473.38 K, 100.7 kPa | 0.02494
473.38 K, 200.8 kPa | 0.02495
473.38 K, 398.5 kPa | 0.02496
473.38 K, 600.9 kPa | 0.02497
473.38 K, 1000.7 kPa | 0.02499
473.38 K, 1500.6 kPa | 0.02503
473.38 K, 1799.3 kPa | 0.02505
